# Values quoted from earlier work in US20040092565A1, “Composition and method of sustaining chemotherapeutic effect while reducing dose of chemotherapeutic agent using cox-2 inhibitor and statin” (priority 2001, published 2004).
# Read-outs that look alike come from different tables or passages of the source.
# How the values were obtained:
# [1] = tested on: Prostate Cancer Cell Line LNCaP; details: literature reports on LNCaP and human prostate carcinoma cells
# [2] = tested on: cisplatin-induced side effects; details: 5 g of glutathione immediately before cisplatin
# [3] = package insert
# prostate cancer specimen = details: mice, in vivo
structure (smiles),measurement,setting,value
CC[C@H](C)C(=O)O[C@H]1C[C@@H](C)C=C2C=C[C@H](C)[C@H](CC[C@@H]3C[C@@H](O)CC(=O)O3)[C@H]21 [lovastatin],therapeutic value in prostate cancer,[1],had therapeutic value in treating prostate cancer
"N[C@@H](CCC(=O)N[C@@H](CS)C(=O)NCC(=O)O)C(=O)O [glutathione, gamma-Glu-Cys-Gly]",intensity of hematologic toxicity,[2]; compared with control group,significantly less pronounced
same,overall survival,"[2]; vs. 10.5 months in the other group, no statistical difference",13.5 months
CS(=O)(=O)c1ccc(C2=C(c3ccccc3)C(=O)OC2)cc1 [rofecoxib],time to maximum plasma concentration,[3]; for some persons,2 to 9 h
same,time to maximum plasma concentration,[3]; on average,2 to 3 h
CS(=O)(=O)Nc1ccc([N+](=O)[O-])cc1OC1CCCCC1 [NS398],angiogenesis of prostate cancer specimen,prostate cancer specimen,inhibit angiogenesis
